# Target: T1, Syk kinase (Homo sapiens, UniProt P43405)
# T1 construct: purchased
# Test: Syk kinase inhibition, Caliper LabChip off-chip mobility-shift kinase assay
# Type: biochemical
# Details: Caliper LabChip assay; read-out: Syk Enzyme IC50
# How it was run: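 Purified Syk pre-incubated 15 min with compound in 100 mM HEPES pH 7.5, 1 mM DTT, 10 mM MgCl2 or MnCl2, 0.002% Brij-35, then 1.5 μM fluorescein peptide and ATP at apparent KM added; 1–1.5 h at room temperature, 4% DMSO, EDTA stop. Microfluidic mobility-shift product/substrate conversion gave % inhibition; IC50 from 12-point series (10–0.00003 μM) by 4-parameter fit.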
row,IC50,SMILES
1,0.546 µM,Nc1ncc(-c2cc3ccn(CCO)c(=O)c3c(N3CCCC3)n2)cn1 [compound 909]
2,0.595 µM,CN(C)CCNC(=O)c1ccnc(Nc2cc3ccn(CCO)c(=O)c3c(NC(C)(C)C)n2)c1 [compound 683]
3,0.12 µM,CC(C)(C)Nc1nc(Nc2cnccn2)cc2ccn(C[C@@H](O)c3ccccc3)c(=O)c12 [compound 676]
4,0.022 µM,O=c1c2c(NCC(F)(F)F)nc(Nc3cnccn3)cc2ccn1CCO [compound 825]
5,0.009 µM,"CC(C)(C)Nc1nc(Nc2cnccn2)cc2ccn(CCS(C)(=O)=O)c(=O)c12 [compound 738, 8-(tert-butylamino)-2-(2-(methylsulfonyl)ethyl)-6-(pyrazin-2-ylamino)-2,7-naphthyridin-1(2H)-one]"
6,0.251 µM,CC(C)(C)Nc1nc(Nc2cc(CN3CC(O)C3)c(F)cn2)cc2ccn(CCO)c(=O)c12 [compound 611]
7,0.25 µM,Cc1ccnc(Nc2cc3ccn(C)c(=O)c3c(Nc3ccc(C)c(S(N)(=O)=O)c3)n2)c1 [compound 654]
8,0.004 µM,CCn1ccc2cc(-c3cnc(N)nc3)nc(NC(C)(C)CO)c2c1=O [compound 904]
9,0.005 µM,CC(C)(C)Nc1nc(-c2cnc(N)nc2)cc2cc[nH]c(=O)c12 [compound 894]
10,0.096 µM,CC(C)(C)Nc1nc(Nc2cc(C3CCNCC3)ncn2)cc2ccn(CCO)c(=O)c12 [compound 638]
11,0.032 µM,CC(C)n1ccc2cc(Nc3cnccn3)nc(N[C@H]3CC[C@@H](O)CC3)c2c1=O [compound 944]
12,0.064 µM,Cc1cc(-c2ccnc(Nc3cc4ccn(CCO)c(=O)c4c(NC(C)(C)C)n3)c2)ccn1 [compound 854]
13,0.109 µM,CC(C)(O)Cn1ccc2cc(Nc3cc(C(C)(C)O)ncn3)nc(NC(C)(C)C)c2c1=O [compound 731]
14,0.005 µM,"CC(C)(C)Nc1nc(Nc2cc(OC3CCNCC3)ncn2)cc2ccn(CCO)c(=O)c12 [compound 645, 8-(tert-butylamino)-2-(2-hydroxyethyl)-6-(6-(piperidin-4-yloxy)pyrimidin-4-ylamino)-2,7-naphthyridin-1(2H)-one]"
15,0.008 µM,CC(C)(C)Nc1nc(-c2cnc(N)nc2)cc2ccn(CC(O)CO)c(=O)c12 (stereo not shown) [compound 929]
16,0.066 µM,CC1(Cn2ccc3cc(-c4cnc(N)nc4)nc(NC4CCOCC4)c3c2=O)COC1 [compound 769]
17,0.009 µM,CC(C)(C)Nc1nc(Nc2cc(C(F)F)ccn2)cc2ccn(CCO)c(=O)c12 [compound 615]
18,0.06 µM,CC(C)(C)Nc1nc(Nc2cc(OCC3CCCO3)ncn2)cc2ccn(CC(O)CO)c(=O)c12 (stereo not shown) [compound 891]
19,0.051 µM,C#CCn1ccc2cc(Nc3cnccn3)nc(NC(C)(C)C)c2c1=O [compound 882]
20,0.203 µM,CC1(Nc2nc(Nc3cc(C(C)(C)O)ccn3)cc3ccn(CC(N)=O)c(=O)c23)CC1 [compound 724]
21,0.866 µM,CC(C)(C)Nc1nc(Nc2cc(C(=O)N3CCCC(CO)C3)ccn2)cc2ccn(CCO)c(=O)c12 (stereo not shown) [compound 688]

# Same assay, conditions: read-out: Syk Enzyme IC50
row,SMILES,IC50
1,CC(C)C(C)Nc1nc(Nc2ccccn2)cc2cc[nH]c(=O)c12 (stereo not shown) [compound 278],2.21 µM
2,COCC(C)Nc1nc(Nc2cc(C)ccn2)cc2cc[nH]c(=O)c12 (stereo not shown) [compound 266],0.074 µM
3,CN1CCC(Nc2nc(-c3cnc(N)nc3)cc3ccn(C)c(=O)c23)CC1 [compound 31],1.77 µM
4,[2H]C([2H])([2H])n1ccc2cc(Nc3cnccn3)nc(NC3CC3)c2c1=O [compound 467],0.049 µM
5,Cc1ccnc(Nc2cc3c(F)cn(C)c(=O)c3c(NC(C)C)n2)c1 [compound 567],0.978 µM
6,Cc1ccnc(Nc2cc3ccn(CCN4CCOCC4)c(=O)c3c(NC(C)C)n2)c1 [compound 315],0.381 µM
7,Cc1ccnc(Nc2cc3cc[nH]c(=O)c3c(N[C@H]3CC[C@@H](O)CC3)n2)c1 [compound 303],0.017 µM
8,Cc1ccnc(Nc2cc3cc[nH]c(=O)c3c(NC(C)CC(C)C)n2)c1 (stereo not shown) [compound 270],6.95 µM
9,Cc1cc(Nc2cc3ccn(CCO)c(=O)c3c(NC(C)(C)CO)n2)ncc1Cl [compound 497],0.111 µM
10,Cc1ccnc(Nc2cc3cc[nH]c(=O)c3c(NC[C@H](C)O)n2)c1 [compound 501],0.038 µM
11,Cc1ccnc(Nc2cc3cc[nH]c(=O)c3c(NC3CC3)n2)c1 [compound 535],0.206 µM
12,O=c1[nH]ccc2cc(Nc3cc(C(F)(F)F)ccn3)nc(NC3CC3)c12 [compound 517],0.386 µM
13,CCn1ccc2cc(Nc3cnccn3)nc(N[C@H]3CCOC3)c2c1=O [compound 355],0.037 µM
14,CCn1ccc2cc(Nc3cnccn3)nc(NC(C)(C)CO)c2c1=O [compound 471],0.1 µM
15,Cc1ccnc(Nc2cc3cc[nH]c(=O)c3c(N[C@@H]3CCOC3)n2)c1 [compound 301],0.037 µM

# Other lines, results leading:
row,IC50,SMILES
1,0.168 µM,COCCNC(=O)c1ccc(Nc2nc(-c3cncc(OC)n3)cc3cc[nH]c(=O)c23)cc1 [compound 59]
2,0.007 µM,COCC(O)CN1CCC(c2ccc(Nc3nc(-c4cncc(OC)n4)cc4cc[nH]c(=O)c34)cc2C)CC1 (stereo not shown) [compound 142]
3,0.102 µM,Cc1ccc(-c2cc3cc[nH]c(=O)c3c(Nc3ccc(CCN4CCCN(C)CC4)cc3)n2)cn1 [compound 437]
4,0.007 µM,COCCCN1CCC(c2ccc(Nc3nc(-c4cncc(OC)n4)cc4cc[nH]c(=O)c34)cc2C)CC1 [compound 141]
5,2.32 µM,COc1cncc(-c2cc3cc[nH]c(=O)c3c(Nc3ccc(C4CCN(C(=O)N5CCCC5)CC4)c(C)c3)n2)n1 [compound 113]
6,0.4 µM,O=C1CCC(c2ccc(Nc3nc(-c4cncnc4)cc4cc[nH]c(=O)c34)cc2)CC1 [compound 91]
7,0.055 µM,O=c1[nH]cc(F)c2cc(-c3cncnc3)nc(Nc3ccc(N4CCOCC4)cc3)c12 [compound 429]
8,0.316 µM,COc1cncc(-c2cc3cc[nH]c(=O)c3c(Nc3ccc(N4CC5(CNC5)C4)cc3)n2)n1 [compound 5]
9,0.019 µM,COc1cncc(-c2cc3cc[nH]c(=O)c3c(Nc3ccc(C4CCN(CCCC#N)CC4)c(C)c3)n2)n1 [compound 172]
10,3.85 µM,Cc1ccc(Nc2cc3cc[nH]c(=O)c3c(Nc3ccc(N4CCOCC4)cc3)n2)nc1 [compound 545]
11,0.03 µM,Nc1ncc(-c2cc3cc[nH]c(=O)c3c(N[C@@H]3CCC[C@@H]3O)n2)cn1 [compound 182]
12,0.033 µM,COc1cncc(-c2cc3cc[nH]c(=O)c3c(Nc3ccc(C4CCN(CCN(C)C)CC4)c(C)c3)n2)n1 [compound 63]
13,0.99 µM,COc1ccc(-c2cc3cc[nH]c(=O)c3c(Nc3ccc(C4CCN(C5CC5)CC4)c(C)c3)n2)cc1OC [compound 213]
14,0.004 µM,COc1cncc(-c2cc3cc[nH]c(=O)c3c(Nc3ccc(C4CN(C)C4)cc3)n2)n1 [compound 146]
15,0.067 µM,COCCN1CCN(c2n[nH]c3cc(Nc4nc(-c5ccc(C)nc5)cc5cc[nH]c(=O)c45)ccc23)CC1 [compound 215]
16,1.59 µM,Cc1ccc(Nc2cc3cc[nH]c(=O)c3c(Nc3ccc(C4CCN(C5CC5)CC4)c(C)c3)n2)nc1 [compound 249]
17,0.07 µM,CCN1CCN(c2n[nH]c3cc(Nc4nc(-c5cnc(OC)nc5)cc5cc[nH]c(=O)c45)ccc23)CC1 [compound 201]
18,1.66 µM,C/C=C/c1cc2cc[nH]c(=O)c2c(Nc2ccc(C3CCN(C4CC4)CC3)c(C)c2)n1 [compound 228]
19,0.014 µM,CCN1CCC[C@@H]1CNC(=O)c1ccc(Nc2nc(-c3cncc(OC)n3)cc3cc[nH]c(=O)c23)cc1 [compound 83]

# Reference: patent publication US20110053897A1 (IRM LLC, priority 2009, published 2011)
